Test results: the NIST ThermoML archive (doi:10.1021/je049874h)
± gives the expanded uncertainty stated by the source.

Details: Liquid

Row | Compound | vapor or sublimation pressure (263.15 K) | vapor or sublimation pressure (278.15 K) | vapor or sublimation pressure (293.15 K)
1 | FCF [difluoromethane] | 580.2 ± 2.8 kPa | 949.6 ± 3.6 kPa | 1473.2 ± 4.8 kPa
2 | CCCC [butane] | 69.6 ± 2 kPa | 125.1 ± 2 kPa | 209.4 ± 2.1 kPa
